From patent US9439438B2 (priority 2011, dated 2016)
Like-named read-outs stand apart in the source and are kept apart here.

How the values were obtained:
[1] = test system: HeLa cells; assay type: cell-based
[2] = test system: HeLa cells; assay type: cell-based; remark: listed apart in the source
[3] = test system: mice; details: mouse, in vivo
[4] = test system: vesicular stomatitis virus G protein; assay type: cell-based
[5] = target: T1, GPP130 (Homo sapiens, UniProt O00461); assay type: cell-based
T1 sequence (O00461 1-696): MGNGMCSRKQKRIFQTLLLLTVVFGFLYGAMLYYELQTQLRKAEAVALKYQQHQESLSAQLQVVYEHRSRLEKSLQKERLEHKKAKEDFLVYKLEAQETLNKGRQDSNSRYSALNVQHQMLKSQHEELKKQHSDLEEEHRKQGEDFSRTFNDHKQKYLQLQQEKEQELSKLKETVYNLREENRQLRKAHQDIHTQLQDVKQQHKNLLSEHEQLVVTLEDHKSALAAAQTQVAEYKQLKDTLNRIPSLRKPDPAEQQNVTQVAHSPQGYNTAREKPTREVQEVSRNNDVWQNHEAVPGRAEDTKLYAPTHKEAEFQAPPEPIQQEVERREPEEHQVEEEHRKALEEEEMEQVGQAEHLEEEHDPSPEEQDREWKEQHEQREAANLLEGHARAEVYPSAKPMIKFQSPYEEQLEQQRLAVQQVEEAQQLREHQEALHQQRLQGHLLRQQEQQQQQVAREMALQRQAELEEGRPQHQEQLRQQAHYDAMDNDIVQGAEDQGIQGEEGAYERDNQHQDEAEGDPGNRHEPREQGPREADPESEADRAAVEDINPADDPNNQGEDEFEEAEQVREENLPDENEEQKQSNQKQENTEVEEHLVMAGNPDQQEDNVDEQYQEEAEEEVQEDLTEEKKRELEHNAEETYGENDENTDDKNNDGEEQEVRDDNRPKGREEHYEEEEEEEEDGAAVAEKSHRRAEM

[6] = test system: HeLa cells; assay type: cell-based; remark: listed apart in the source
[7] = test system: HeLa cells
[8] = test system: HeLa cells; remark: listed apart in the source
[9] = target: T1, GPP130; assay type: cell-based; remark: listed apart in the source
[10] = test system: mice; details: mouse, in vivo, ip
[11] = test system: mice; details: mouse, in vivo, ip, 100 mg/kg
[12] = in vivo; cited from earlier work
[13] = test system: HeLa cells; assay type: cell-based; remark: listed apart in the source

Which “localization or trafficking of GP73, TGN46 and Lamp2” value [1] does the source give for [Cl][Mn][Cl] [Mn, MnCl2] here?
The value was “did not alter”.

What about the “cellular STxB level (toxin degradation)” value [2] of the same compound?
Its value is “dramatic loss of STxB”.

And the “time at which STxB is degraded in Mn-treated cells” value [2]?
The value was 1 to 2 h.

And the “STx1-induced renal damage (kidney histology)” value [3]?
Its value is “no STx1-induced renal damage”.

And the “complete protection against lethal STx1 evident” value [3]?
The value was “not”.

What about the “health and survival after lethal STx1” value [3] of the same compound?
The value was “all Mn-treated animals remained healthy and survived”.

And the “protection against lethal STx1” value [3]?
The value was “Complete protection”.

What about the “ER-to-cell surface trafficking of vesicular stomatitis virus G protein” value [4] of the same compound?
Its value is “did not affect”.

And the “GPP130 in cells after Mn” value [5]?
Its value is “lacked GPP130”.

What about the “STxB reaching the ER (STxB-KDEL)” value [5] of the same compound?
The value was “STxB did not reach the ER”.

And the “STxB trafficking from the cell surface to the Golgi” value [5]?
The value was “STxB accumulated in peripheral punctate structures resembling endosomes”.

And the “epidermal growth factor (EGF) internalization and degradation” value [6]?
The value was “did not affect”.

What about the “STx1 concentration, relative to the LD50, at which 50% cell death was not evident” value [7] of the same compound?
Its value is > 2000 fold.

And the estimated protection factor [7]?
Its estimated protection factor is 3800.

And the “protection against STx-induced cell death” value [7]?
The value was 3800 fold.

And the “viability with Mn by itself” value [7]?
The value was “did not compromise viability”.

What about the “cell viability (MTT)” value [8] of the same compound?
Its value is “did not affect cell viability”.

What about the “sorting of STxB into endosomal tubules” value [9] of the same compound?
The value was “abolished”.

What about the “apparent LD50” value [10] of the same compound?
The value was 125 mg/kg.

And the paralysis and lethality ([10]; 100 mg/kg)?
The paralysis and lethality was “Paralysis and lethality were not seen at any time”.

What about the paralysis and lethality ([10]; 150 mg/kg) of the same compound?
The paralysis and lethality was “got paralyzed within a few hours and were then euthanized”.

What about the paralysis and lethality ([10]; 250 mg/kg) of the same compound?
Its paralysis and lethality is “got paralyzed within minutes and died”.

And the paralysis and lethality ([10]; 500 mg/kg)?
Its paralysis and lethality is “got paralyzed within minutes and died”.

And the “body weight, locomotor activity and demeanor” value [11]?
The value was “significantly lost weight, exhibited a depressed, lethargic attitude accompanied with diminished locomotor activity”.

And the “clearance from the system” value [12]?
Its value is “cleared from the system within hours”.

What about the “cholera toxin B-subunit (CTxB) trafficking” value [13] of the same compound?
Its value is “no difference between Mn-treated and control cells”.
